Measured values published in US5589474A, “Dibenzothiazepinthione as antiviral agents” (Glaxo Wellcome Inc., priority 1991, dated 1996).

How the values were obtained:
HIV [1] = experiment: HIV (in vitro) MT4 assay; format: cell-based; conditions: Human immunodeficiency virus 1
HIV [2] = experiment: HeLa-CD4 plaque reduction assay (HIV in vitro); format: cell-based; conditions: Human immunodeficiency virus 1

SMILES	IC50 (HIV [1]) [µM]	IC50 (HIV [2]) [µM]
Fc1cccc2c1Sc1ccccc1NC2=S [8(iv), 4-Fluoro-10,11-dihydrobenzo[b,f][1,4]thiazepin-11-thione]	3.3	15.4
S=C1Nc2ccccc2Sc2ccccc21 [Example 3, 10,11-Dihydrodibenzo[b,f][1,4]thiazepin-11-thione]	9	5
O=[N+]([O-])c1ccc2c(c1)C(=S)Nc1ccccc1S2 [Example 6, 2-Nitro-10,11-dihydrodibenzo[b,f][1,4]thiazepin-11-thione]	44.4	14.4
